In patent US20230227426A1 (Akebia Therapeutics, Inc., priority 2020, published 2023):
pIC50: −log10 of the molar value.

Experiments:
Format in all cases: biochemical
[1] = biological target: T1, full-length human PHD1 (Homo sapiens, UniProt Q96KS0); test: TR-FRET assay for PHD enzymes, PHD1
T1 construct: FLAG (N); purchased Active Motif (Carlsbad, Calif., USA) 81064; host or cells: baculovirus expression system
Description: (§1) The resulting proximity of the donor fluorophore complex, monoclonal antibody anti-6His-Terbium (Tb)-cryptate Gold, bound to the His-tagged VHL protein, EloB, EloC complex (His-VBC) and the acceptor fluorophore, SA-D2 complex, bound to HIF-1α-hydroxyproline results in a fluorescence resonance energy transfer signal that can be detected and quantified
Recombinant human PHD1 protein (catalog #81064, Lot #24717001) was purchased from Active Motif (Carlsbad, Calif., USA). PHD1 was expressed in a baculovirus expression system as the full-length protein (NCBI accession number NP_542770.2) with an N-terminal FLAG tag (molecular weight 44.9 kDa). Purity (>90%) was assessed by SDS-PAGE.
(§2) For this, 5 μL PHD inhibitor compound was serially diluted with dilution buffer (50 mM HEPES [4-(2-hydroxyethyl)-1-piperazineethanesulfonic acid] pH 7.5, 50 mM sodium chloride [NaCl], 0.01% Tween-20, 0.01% purified bovine serum albumin [BSA]) and mixed with 5 μL PHD enzyme mix prepared as a 4× concentrate in the dilution buffer containing PHD enzyme (60 nM PHD1, 20 nM PHD2, 140 nM PHD3), 40 μM ferrous ammonium sulfate (FAS), 4 mM sodium (Na) ascorbate.
(§3) The IC50 values (mean, standard deviation, standard error of the mean, geometric mean and 95% confidence interval) were determined using a four-parameter curve-fit using GraphPad Prism 7.0 (GraphPad, La Jolla, Calif., USA) and represent the compound concentration plotted against the calculated ratio of 665 nm and 615 nm.

[2] = biological target: T2, full-length human PHD2 (Homo sapiens, UniProt Q9GZT9); test: TR-FRET assay for PHD enzymes, PHD2; settings: read-out: PHD2 IC5 0
T2 construct: The PHD2 construct contained amino acids 1 to 426 of PHD2; His tag (N, cleaved yes); TEV protease cleavage site (N, cleaved yes); host or cells: Sf9 insect cells (baculovirus)
Method: as §1, §2, §3

[3] = biological target: T3, full-length human PHD3 (Homo sapiens, UniProt Q9H6Z9); test: TR-FRET assay for PHD enzymes, PHD3
T3 construct: 6-His (N); purchased Active Motif (Carlsbad, Calif., USA) 81033; host or cells: E. coli
Description: as §1
Recombinant human PHD3 protein (molecular weight 31.1 kDa) was purchased from Active Motif (Carlsbad, Calif., USA). It was expressed in E. coli as the full-length protein (NCBI accession number NP_071356.1) with an N-terminal 6-His tag (catalog #81033, Lot #24417001).
as §2, §3

T2 sequence (Q9GZT9 whole entry, the tested form may be a part): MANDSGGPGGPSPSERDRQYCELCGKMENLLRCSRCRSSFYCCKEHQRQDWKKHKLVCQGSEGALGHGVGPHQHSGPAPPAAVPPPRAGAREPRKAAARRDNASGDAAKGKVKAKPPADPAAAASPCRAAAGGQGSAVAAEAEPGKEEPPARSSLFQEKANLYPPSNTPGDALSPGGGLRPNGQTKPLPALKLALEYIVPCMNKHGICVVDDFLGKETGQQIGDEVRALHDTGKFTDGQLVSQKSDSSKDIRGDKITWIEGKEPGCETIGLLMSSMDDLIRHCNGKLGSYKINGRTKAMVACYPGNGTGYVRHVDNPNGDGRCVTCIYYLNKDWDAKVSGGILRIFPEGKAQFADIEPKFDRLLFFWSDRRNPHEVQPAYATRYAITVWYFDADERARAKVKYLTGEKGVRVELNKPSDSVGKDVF
T1 sequence (Q96KS0 whole entry): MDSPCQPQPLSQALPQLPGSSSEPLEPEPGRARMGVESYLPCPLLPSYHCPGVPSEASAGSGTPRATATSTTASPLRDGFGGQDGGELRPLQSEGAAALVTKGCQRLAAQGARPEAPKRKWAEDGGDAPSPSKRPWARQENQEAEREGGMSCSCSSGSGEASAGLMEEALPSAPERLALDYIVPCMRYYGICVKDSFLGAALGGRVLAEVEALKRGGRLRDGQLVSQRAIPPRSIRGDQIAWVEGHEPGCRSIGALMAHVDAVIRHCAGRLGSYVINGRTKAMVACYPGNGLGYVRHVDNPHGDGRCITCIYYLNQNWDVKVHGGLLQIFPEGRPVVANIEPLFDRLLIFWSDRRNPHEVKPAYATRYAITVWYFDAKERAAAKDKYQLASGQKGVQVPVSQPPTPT
T3 sequence (Q9H6Z9 whole entry): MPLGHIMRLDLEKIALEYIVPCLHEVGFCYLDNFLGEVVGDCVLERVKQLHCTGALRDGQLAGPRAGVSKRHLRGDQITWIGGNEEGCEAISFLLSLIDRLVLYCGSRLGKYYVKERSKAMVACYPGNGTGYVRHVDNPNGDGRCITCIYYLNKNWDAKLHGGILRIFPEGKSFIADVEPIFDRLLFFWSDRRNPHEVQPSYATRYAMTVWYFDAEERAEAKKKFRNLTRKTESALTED

Row | Compound | pIC50 [1] | pIC50 [2] | pIC50 [3]
1 | Cc1ccc(-c2cnn(-c3ccc(C(=O)OC(C)(C)C)cn3)c2O)cc1 [Compound 1, Tert-butyl 6-(5-hydroxy-4-(p-tolyl)-1H-pyrazol-1-yl)nicotinate] | 6.00 to 7.00 | 5.00 to 6.00 | 
2 | CC(C)(C)OC(=O)c1ccc(-n2ncc(-c3ccc(Br)cc3)c2O)nc1 [Compound 2, Tert-butyl 6-(4-(4-bromophenyl)-5-hydroxy-1H-pyrazol-1-yl)nicotinate] | 6.00 to 7.00 | ≤ 5.00 | 
3 | O=C(O)c1ccc(-n2ncc(-c3ccc(Br)cc3)c2O)nc1 [Compound 3, 6-(4-(4-Bromophenyl)-5-hydroxy-1H-pyrazol-1-yl) nicotinic acid] | > 7.00 | > 7.00 | 6.00 to 7.00
4 | CC(C)(C)OC(=O)c1ccc(-n2ncc(-c3ccc(Cl)cc3)c2O)nc1 [Compound 4, Tert-butyl 6-(4-(4-chlorophenyl)-5-hydroxy-1H-pyrazol-1-yl)nicotinate] | 6.00 to 7.00 | 5.00 to 6.00 | 
5 | O=C(O)c1ccc(-n2ncc(-c3ccc(Cl)cc3)c2O)nc1 [Compound 5, 6-(4-(4-Chlorophenyl)-5-hydroxy-1H-pyrazol-1-yl)nicotinic acid] | > 7.00 | > 7.00 | 6.00 to 7.00
6 | CC(C)(C)OC(=O)c1ccc(-n2ncc(-c3ccc(F)cc3)c2O)nc1 [Compound 6, Tert-butyl 6-(4-(4-fluorophenyl)-5-hydroxy-1H-pyrazol-1-yl)nicotinate] | > 7.00 | 5.00 to 6.00 | 
7 | O=C(O)c1ccc(-n2ncc(-c3ccc(F)cc3)c2O)nc1 [Compound 7, 6-(4-(4-Fluorophenyl)-5-hydroxy-1H-pyrazol-1-yl)nicotinic acid] | > 7.00 | > 7.00 | 5.00 to 6.00
8 | Cc1cc(C#N)ccc1-c1cnn(-c2ccc(C(=O)OC(C)(C)C)cn2)c1O [Compound 8, Tert-butyl 6-(4-(4-cyano-2-methylphenyl)-5-hydroxy-1H-pyrazol-1-yl)nicotinate] | > 7.00 | > 7.00 | > 7.00
9 | Cc1nn(-c2ccc(C(=O)O)cn2)c(O)c1-c1ccc(C#N)cc1 [Compound 9, 6-(4-(4-Cyanophenyl)-5-hydroxy-3-methyl-1H-pyrazol-1-yl)nicotinic acid] | > 7.00 | > 7.00 | > 7.00
10 | Cc1nn(-c2ccc(C(=O)OC(C)(C)C)cn2)c(O)c1-c1ccc(C#N)cc1 [Compound 10, Tert-butyl 6-(4-(4-cyanophenyl)-5-hydroxy-3-methyl-1H-pyrazol-1-yl)nicotinate] | > 7.00 | > 7.00 | ≤ 5.00
11 | COC(=O)c1ccc(-n2nc(C)c(-c3ccc(C#N)cc3)c2O)nc1 [Compound 11, Methyl 6-(4-(4-cyanophenyl)-5-hydroxy-3-methyl-1H-pyrazol-1-yl)nicotinate] | > 7.00 | > 7.00 | 6.00 to 7.00
12 | N#Cc1cc(F)c(-c2cnn(-c3ccc(C(=O)O)cn3)c2O)cc1F [Compound 12, 6-(4-(4-Cyano-2,5-difluorophenyl)-5-hydroxy-1H-pyrazol-1-yl)nicotinic acid] | > 7.00 | > 7.00 | 6.00 to 7.00
13 | N#Cc1ccc(-c2cnn(-c3ccc(C(=O)O)cn3)c2O)cc1F [Compound 13, 6-(4-(4-cyano-3-fluorophenyl)-5-hydroxy-1H-pyrazol-1-yl)nicotinic acid] | > 7.00 | > 7.00 | > 7.00
14 | N#Cc1ccc(-c2cnn(-c3ncc(C(=O)O)cc3F)c2O)cc1 [Compound 14, 6-(4-(4-cyanophenyl)-5-hydroxy-1H-pyrazol-1-yl)-5-fluoronicotinic acid] | 5.00 to 6.00 | 5.00 to 6.00 | 
15 | Cc1nn(-c2ccc(C(=O)O)cn2)c(O)c1-c1ccc(Cl)cc1 [Compound 15] | > 7.00 | > 7.00 | 
16 | Cc1cc(-c2cnn(-c3ccc(C(=O)O)cn3)c2O)ccc1O [Compound 16, 6-(5-hydroxy-4-(4-hydroxy-3-methylphenyl)-1H-pyrazol-1-yl)nicotinic acid] | 6.00 to 7.00 | 6.00 to 7.00 | 5.00 to 6.00
17 | Cc1nc(-n2nc(C)c(-c3ccc(C#N)cc3)c2O)ccc1C(=O)O [Compound 19, 6-(4-(4-cyanophenyl)-5-hydroxy-3-methyl-1H-pyrazol-1-yl)-2-methylnicotinic acid] | 5.00 to 6.00 | 5.00 to 6.00 | 

Row | Compound | pIC50 [1] | pIC50 [2] | pIC50 [3]
18 | Cc1nn(-c2ccc(C(=O)O)cn2)c(O)c1-c1ccc(Cl)cn1 [Compound 20, 6-(4-(5-chloropyridin-2-yl)-5-hydroxy-3-methyl-1H-pyrazol-1-yl)nicotinic acid] | > 7.00 | 6.00 to 7.00 | 
19 | O=C(O)c1ccc(-n2ncc(-c3ccc(Cl)c(O)c3)c2O)nc1 [Compound 22, 6-(4-(4-chloro-3-hydroxyphenyl)-5-hydroxy-1H-pyrazol-1-yl)nicotinic acid] | > 7.00 | > 7.00 | 
20 | Cc1nn(-c2ccc(C(=O)O)cn2)c(O)c1-c1ccc(C#N)c(F)c1 [Compound 23, 6-(4-(4-cyano-3-fluorophenyl)-5-hydroxy-3-methyl-1H-pyrazol-1-yl)nicotinic acid] | > 7.00 | > 7.00 | 
21 | Cc1nn(-c2ccc(C(=O)O)cn2)c(O)c1-c1ccc(C#N)cc1F [Compound 25, 6-(4-(4-cyano-2-fluorophenyl)-5-hydroxy-3-methyl-1H-pyrazol-1-yl)nicotinic acid] | > 7.00 | > 7.00 | 
22 | Cc1nn(-c2cc(N)c(C(=O)O)cn2)c(O)c1-c1ccc(C#N)cc1 [Compound 27, 4-amino-6-(4-(4-cyanophenyl)-5-hydroxy-3-methyl-1H-pyrazol-1-yl)nicotinic acid] | > 7.00 | > 7.00 | 
23 | Cc1cc(-c2c(C)nn(-c3ccc(C(=O)O)cn3)c2O)ccc1C#N [Compound 29, 6-(4-(4-cyano-3-methylphenyl)-5-hydroxy-3-methyl-1H-pyrazol-1-yl)nicotinic acid] | > 7.00 | > 7.00 | 
24 | N#Cc1ccc(-c2cnn(-c3ccc(C(=O)O)cn3)c2O)c(Cl)c1 [Compound 30, 6-(4-(2-chloro-4-cyanophenyl)-5-hydroxy-1H-pyrazol-1-yl)nicotinic acid] | > 7.00 | > 7.00 | 
25 | Cc1cc(C#N)cc(C)c1-c1cnn(-c2ccc(C(=O)O)cn2)c1O [Compound 31, 6-(4-(4-cyano-2,6-dimethylphenyl)-5-hydroxy-1H-pyrazol-1-yl)nicotinic acid] | > 7.00 | 6.00 to 7.00 | 
26 | COc1ccc(-c2c(C)nn(-c3ccc(C(=O)O)cn3)c2O)cc1C [Compound 32, 6-(5-hydroxy-4-(4-methoxy-3-methylphenyl)-3-methyl-1H-pyrazol-1-yl)nicotinic acid] | 6.00 to 7.00 | 6.00 to 7.00 | 
27 | CCc1cc(C#N)ccc1-c1cnn(-c2ccc(C(=O)O)cn2)c1O [Compound 33, 6-(4-(4-cyano-2-ethylphenyl)-5-hydroxy-1H-pyrazol-1-yl)nicotinic acid] | > 7.00 | > 7.00 | 
28 | Cc1nn(-c2cnc(C(=O)O)cn2)c(O)c1-c1ccc(C#N)cc1 [Compound 34, 5-(4-(4-cyanophenyl)-5-hydroxy-3-methyl-1H-pyrazol-1-yl)pyrazine-2-carboxylic acid] | > 7.00 | > 7.00 | 
29 | N#Cc1ccc(-c2cnn(-c3ccc(C(=O)O)cn3)c2O)c(C(F)(F)F)c1 [Compound 40, 6-(4-(4-cyano-2-(trifluoromethyl)phenyl)-5-hydroxy-1H-pyrazol-1-yl)nicotinic acid] | > 7.00 | > 7.00 | 
30 | Cc1nn(-c2ccc(C(=O)O)cn2)c(O)c1-c1cc[n+]([O-])cc1 [Compound 41, 4-(1-(5-carboxypyridin-2-yl)-5-hydroxy-3-methyl-1H-pyrazol-4-yl)pyridine 1-oxide] | ≤ 5.00 | ≤ 5.00 | 
31 | Cc1nn(-c2ccc(C(=O)O)cn2)c(O)c1-c1ccc(Cl)c(C#N)c1 [Compound 42, 6-(4-(4-chloro-3-cyanophenyl)-5-hydroxy-3-methyl-1H-pyrazol-1-yl)nicotinic acid] | > 7.00 | > 7.00 | 
32 | COc1ccc(-c2cnn(-c3ccc(C(=O)O)cn3)c2O)cn1 [Compound 43, 6-(5-Hydroxy-4-(6-methoxypyridin-3-yl)-1H-pyrazol-1-yl)nicotinic acid] | > 7.00 | > 7.00 | 
33 | Cc1nn(-c2ccc(C(=O)O)cn2)c(O)c1-c1ccc(C#N)c(Cl)c1 [Compound 44, 6-(4-(3-chloro-4-cyanophenyl)-5-hydroxy-3-methyl-1H-pyrazol-1-yl)nicotinic acid] | > 7.00 | > 7.00 | 
